According to patent US11208407B2, “Substituted phenyl compounds as indoleamine 2,3-dioxygenase (IDO) inhibitors” (Merck Sharp & Dohme Corp., priority 2017, dated 2021):

Tests used:
IDO1 [1] = biological target: T1, IDO1 (Homo sapiens, UniProt P14902); assay: IDO1 Human Whole Blood Assay; format: cell-based; design: Human whole blood was drawn in sodium heparin coated tubes from healthy internal donors; from tissue; host or cells: Human whole blood from healthy donors, stimulated with LPS and IFNγ; conditions: LPS and IFNγ 100 ng/mL, 18 h, kynurenine by LC/MS/MS
Experimental: IDO1 Human Whole Blood Assay
Compounds to be tested were serially diluted in ten 3-fold steps in DMSO starting from 10 mM. 3 µL of compound dilutions or DMSO alone were then dispensed from the dilution plate into a polypropylene 96-well assay plate containing 97 µL of RPMI medium using an Echo 555 acoustic liquid handler (Labcyte). LPS (lipopolysaccharide) and IFNγ was prepared in RPMI to a 10× of final conc. (1000 ng/mL), final concentration is 100 ng/mL.
Human whole blood was drawn in sodium heparin coated tubes from healthy internal donors. 240 µL of blood was transferred to each of the wells of a v-bottom 96 well plate. 30 µL of compound was transferred from intermediate dilution plate, and incubated for 15 min. 30 μL from stimulants was then transferred to blood and mixed thoroughly. Plate was covered with breathable membrane and incubated at 37° C. for overnight (18 h).
On day 2, isotope labeled standard solutions of kunurenine and tryptophan was made in water at 10× concentration and 30 µL was added to the blood at 3 µM final concentration. The assay plates were centrifuged at 300×G for 10 min with no brake to separate plasma from red blood cells. 60 µL of plasma samples was removed without disturbing red blood cells. Plasma was diluted with RPMI medium in 1:1 ratio and proteins were precipitated out with two volumes of Acetonitrile. The plates were centrifuged at 4000×G for 60 min. 20 µL of supernatant was carefully transferred to a 384 well plate containing 40 µL of 0.1% formic acid in water and analyzed by LC/MS/MS.
LC/MS/MS analyses were performed using Thermo Fisher's LX4-TSQ Quantum Ultra system. This system consists of four Agilent binary high-performance liquid chromatography (HPLC) pumps and a TSQ Quantum Ultra triple quadrupole MS/MS instrument. For each sample, 5 µL were injected onto an Atlantis T3 column (2.1 mm×150 mm, 3 µm particle size) from Waters. The mobile phase gradient pumped at 0.8 mL/min was used to elute the analytes from the column at 25° C. The elution started at 0% B increasing linearly to 25% B at 6.5 min, holding at 25% for 1 min, re-equilibrating to 10 min. Mobile phase A consisted of 0.1% formic acid in water. Mobile phase B consisted of 0.1% of formic acid in acetonitrile. Data was acquired in positive mode using a HESI interface. The operational parameters for the TSQ Quantum Ultra instrument were a spray voltage of 4000 V, capillary temperature of 380° C., vaporizer temperature 400° C., shealth gas 60 arbitrary units, Aux gas 20 arbitrary units, tube lens 85 and collision gas 1.2 mTorr. SRM (selected-reaction monitoring) chromatograms of kynurenine (Q1: 209.2>Q3:94.0) and internal standard (Q1: 215.3>Q3:98.2) were collected for 90 sec. The peak area was integrated by Xcalibur Quan software. The ratios between the kynurenine generated in the reaction and 2D6-Kynurenine spiked-in internal standard were used to generate percentage inhibition and IC50 values. Compounds were titrated and IC50's were calculated by 4 parameter sigmoidal curve fitting formula.

IDO1 [2] = biological target: T1, IDO1; assay: IDO1 Cellular Assay in HeLa Cells Stimulated with IFNγ; format: cell-based; conditions: IFNγ 100 ng/mL, 300 uM L-tryptophan, about 48 hours, read-out: IDO HeLa Cell Assay, IC50
Experimental: Biological Assays IDO1 Cellular Assay in HeLa Cells Stimulated with IFNγ
HeLa cells were cultured in complete HeLa culture medium (90% EMEM, 10% heat-inactivated fetal bovine serum) and expanded to about 1×10^9 cells. The cells were then collected and frozen down at 1×10^7 cells/vial in 1 mL frozen medium (90% complete HeLa culture medium, 10% DMSO).
Compounds to be tested were serially diluted in ten 3-fold steps in DMSO starting from 10 mM DMSO stocks in Echo low volume plate(s). Compound dilutions or DMSO alone were then dispensed from the dilution plate(s) into Greiner black 384-well assay plate(s) (catalog #781086, 50 nL/well) using an Echo 550 acoustic liquid handler (Labcyte).
Frozen HeLa cells were thawed and transferred into HeLa assay medium (99% complete HeLa culture medium, 1% Pen/Strep) with 20 mL medium/vial of cells. The cells were spun down at 250 g in a table top centrifuge for 5 min and suspended in same volume of HeLa assay medium. The cells were then counted and adjusted to a density of 2×10^5 cells/mL in HeLa assay medium. Sterile L-tryptophan were added to the cells with final concentration of 300 uM L-tryptophan. A small aliquot (2 mL/plate) of HeLa cells were set aside and were not treated with IFNγ, to serve as the Max-E control.
HeLa cells with and without IFNγ were dispensed to the respective wells of 384-well assay plates containing the compounds. The plates were incubated for about 48 hours at a 37° C., 5% CO2 incubator. Afterwards, 12 μL of 0.5 M methyl isonipecotate in dimethyl sulfoxide were added into each well and the plates were sealed and incubated at 37° C. without CO2 overnight. The plates were centrifuged for 1 min at 200×g. The resulting fluorescence was measured in a Spectramax plate reader (Molecular Devices) with a 400 nm excitation filter and a 510 nm emission filter.
The fluorescence intensity of each well was corrected for the background observed in wells with non-IFNγ-treated cells and was expressed as a fraction of the intensity observed in wells of IFNγ-treated cells and DMSO only. Potencies were calculated by linear least squares fit to the four parameter logistic IC50 equation.

T1 sequence (P14902 whole entry): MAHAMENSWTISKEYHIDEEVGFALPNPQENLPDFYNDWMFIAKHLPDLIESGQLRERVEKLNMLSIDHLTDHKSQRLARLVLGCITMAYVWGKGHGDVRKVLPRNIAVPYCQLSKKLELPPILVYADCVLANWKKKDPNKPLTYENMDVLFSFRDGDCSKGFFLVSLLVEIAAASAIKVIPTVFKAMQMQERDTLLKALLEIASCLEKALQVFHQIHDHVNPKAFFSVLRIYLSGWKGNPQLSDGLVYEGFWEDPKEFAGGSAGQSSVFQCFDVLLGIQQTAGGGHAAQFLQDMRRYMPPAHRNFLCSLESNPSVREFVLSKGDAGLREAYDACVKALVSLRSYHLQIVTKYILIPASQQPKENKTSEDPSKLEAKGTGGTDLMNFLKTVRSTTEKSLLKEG

Structure (SMILES) | IC50 (IDO1 [1]) | IC50 (IDO1 [2])
Cc1cc(OC(F)F)nc(C)c1-c1ccc(C2(c3nc4cc(C(F)(F)F)cnc4[nH]3)COC2)cc1 [Example 42, 2-(3-{4-[6-(difluoromethoxy)-2,4-dimethylpyridin-3-yl]phenyl}oxetan-3-yl)-6-(trifluoromethyl)-3H-imidazo[4,5-b]pyridine] | 445 nM | 2.16 nM
N#Cc1cccc(C(=O)Nc2ccc(C3(c4nc5cc(C#N)cnc5[nH]4)CCC3)cc2F)c1 [Example 17, 3-Cyano-N-(4-(1-(6-cyano-3H-imidazo[4,5-b]pyridin-2-yl)cyclobutyl)-2-fluorophenyl)benzamide] | 118 nM | 1.71 nM
O=C(Nc1ccc(C2(c3nc4ncccc4[nH]3)CCC2)cc1)c1cccc(Cl)c1 [Example 5, N-(4-(1-(1H-imidazo[4,5-b]pyridin-2-yl)cyclobutyl)phenyl)-3-chlorobenzamide] | 192 nM | 2.85 nM
N#Cc1cccc(C(=O)Nc2ccc(C3(c4nc5ccc(Cl)cc5[nH]4)CC(F)C3)cc2)c1 (stereo not drawn) [Example 25, N-(4-(1-(6-chloro-1H-benzo[d]imidazol-2-yl)-3-fluorocyclobutyl)phenyl)-3-cyanobenzamide] | 47.6 nM | 1.07 nM
N#Cc1cccc(C(=O)Nc2ccc(C3(c4nc5cc(Cl)cnc5[nH]4)CCC3)cc2F)c1 [Example 18, N-{4-[1-(6-chloro-3H-imidazo[4,5-b]pyridin-2-yl)cyclobutyl]-2-fluorophenyl}-3-cyanobenzamide] | 103 nM | 0.736 nM
N#Cc1cccc(C(=O)Nc2ccc(C3(c4nc5ccc(Cl)cc5[nH]4)COC3)cc2)c1 [Example 11, N-(4-(3-(6-chloro-1H-benzo[d]imidazol-2-yl)oxetan-3-yl)phenyl)-3-cyanobenzamide] | 22.9 nM | 1.56 nM
Cc1cc(OC(F)F)nc(C)c1-c1ccc(C2(c3nc4cc(Cl)ccc4[nH]3)CCC2)cc1 [Example 48, 5-chloro-2-(1-{4-[6-(difluoromethoxy)-2,4-dimethylpyridin-3-yl]phenyl}cyclobutyl)-1H-benzimidazole] | 130 nM | 2.44 nM
N#Cc1cccc(C(=O)Nc2ccc(C3(c4nc5ccc(C#N)cc5[nH]4)CC(F)C3)cc2)c1 (stereo not drawn) [Example 26, 3-Cyano-N-(4-(1-(6-cyano-1H-benzo[d]imidazol-2-yl)-3-fluorocyclobutyl)phenyl)benzamide] | 182 nM | 1.84 nM
O=C(Nc1cccc(Cl)c1)c1ccc(C2(c3nc4ncc(C(F)(F)F)cc4[nH]3)CCC2)cc1 [Example 27, N-(3-chlorophenyl)-4-(1-(6-(trifluoromethyl)-1H-imidazo[4,5-b]pyridin-2-yl)cyclobutyl)benzamide] | 169 nM | 1.48 nM
OCc1cc(C(F)(F)F)ncc1-c1ccc(C2(c3nc4ncc(Cl)cc4[nH]3)CCC2)cc1 [Example 46, [5-{4-[1-(6-chloro-1H-imidazo[4,5-b]pyridin-2-yl)cyclobutyl]phenyl}-2-(trifluoromethyl)pyridin-4-yl]methanol] | 238 nM | 2.28 nM
N#Cc1cccc(C(=O)Nc2ccc(C3(c4nc5cc(C(F)(F)F)cnc5[nH]4)CCC3)cc2F)c1 [Example 19, 3-cyano-N-(2-fluoro-4-{1-[6-(trifluoromethyl)-3H-imidazo[4,5-b]pyridin-2-yl]cyclobutyl}phenyl) benzamide] | 43.7 nM | 0.944 nM
N#Cc1cccc(C(=O)Nc2ccc(C3(c4nc5cc(Br)cnc5[nH]4)CCC3)cc2F)c1 [Example 16, N-(4-(1-(6-bromo-3H-imidazo[4,5-b]pyridin-2-yl)cyclobutyl)-2-fluorophenyl)-3-cyanobenzamide] | 35.5 nM | 1.17 nM
OCc1cc(OC(F)F)ncc1-c1ccc(C2(c3nc4cc(Cl)ccc4[nH]3)CCC2)cc1 [Example 47, [5-{4-[1-(5-chloro-1H-benzimidazol-2-yl)cyclobutyl]phenyl}-2-(difluoromethoxy)pyridin-4-yl]methanol] | 191 nM | 3.94 nM

Results, then the compound that gave them:

IC50 (IDO1 [1]) | IC50 (IDO1 [2]) | Structure (SMILES)
182 nM | 3.6 nM | Cc1cc(C2CC2)ncc1-c1ccc(C2(c3nc4ncc(C#N)cc4[nH]3)CCC2)cc1 [Example 39, 2-(1-(4-(6-Cyclopropyl-4-methylpyridin-3-yl)phenyl)cyclobutyl)-1H-imidazo[4,5-b]pyridine-6-carbonitrile]
284 nM | 1.76 nM | OCc1cc(C(F)(F)F)ncc1-c1ccc(C2(c3nc4ccc(Cl)cc4[nH]3)COC2)cc1 [Example 51, [5-{4-[3-(6-chloro-1H-benzimidazol-2-yl)oxetan-3-yl]phenyl}-2-(trifluoromethyl)pyridin-4-yl]methanol]
606 nM | 2.81 nM | COc1cc(C)c(-c2ccc(C3(c4nc5cc(C(F)(F)F)cnc5[nH]4)COC3)cc2)c(C)n1 [Example 43, 2-{3-[4-(6-methoxy-2,4-dimethylpyridin-3-yl)phenyl]oxetan-3-yl}-6-(trifluoromethyl)-3H-imidazo[4,5-b]pyridine]
2700 nM | 15.4 nM | OCc1cc(C(F)(F)F)ncc1-c1ccc(C2(c3nc4cc(C(F)(F)F)cnc4[nH]3)COC2)cc1 [Example 45, [2-(trifluoromethyl)-5-(4-{3-[6-(trifluoromethyl)-3H-imidazo[4,5-b]pyridin-2-yl]oxetan-3-yl}phenyl)pyridin-4-yl]methanol]
4040 nM | 3.03 nM | OCc1cc(C(F)(F)F)ncc1-c1ccc(C2(c3nc4ncc(Cl)cc4[nH]3)COC2)cc1 [Example 50, (5-(4-(3-(6-chloro-1H-imidazo[4,5-b]pyridin-2-yl)oxetan-3-yl)phenyl)-2-(trifluoromethyl)pyridin-4-yl)methanol]
74.7 nM | 1.53 nM | O=C(Nc1ccc(C2(c3nc4ncc(C(F)(F)F)cc4[nH]3)CCC2)cc1)c1cccc(Cl)c1 [Example 1, 3-Chloro-N-(4-(1-(6-(trifluoromethyl)-1H-imidazo[4,5-b]pyridin-2-yl)cyclobutyl)phenyl)benzamide]
75.1 nM | 3.97 nM | N#Cc1cccc(C(=O)Nc2ccc(C3(c4nc5ncc(C#N)cc5[nH]4)CCC3)cc2)c1 [Example 3, 3-Cyano-N-(4-(1-(6-cyano-1H-imidazo[4,5-b]pyridin-2-yl)cyclobutyl)phenyl)benzamide]
91 nM | 1.1 nM | OCc1cc(C(F)(F)F)ncc1-c1ccc(C2(c3nc4ccc(Cl)cc4[nH]3)CCC2)cc1 [Example 52, [5-{4-[1-(6-chloro-1H-benzimidazol-2-yl)cyclobutyl]phenyl}-2-(trifluoromethyl)pyridin-4-yl]methanol]
